Assay [1] addresses T1, Oxytocin receptor (Homo sapiens) (UniProt P30559).
T1 sequence (whole entry): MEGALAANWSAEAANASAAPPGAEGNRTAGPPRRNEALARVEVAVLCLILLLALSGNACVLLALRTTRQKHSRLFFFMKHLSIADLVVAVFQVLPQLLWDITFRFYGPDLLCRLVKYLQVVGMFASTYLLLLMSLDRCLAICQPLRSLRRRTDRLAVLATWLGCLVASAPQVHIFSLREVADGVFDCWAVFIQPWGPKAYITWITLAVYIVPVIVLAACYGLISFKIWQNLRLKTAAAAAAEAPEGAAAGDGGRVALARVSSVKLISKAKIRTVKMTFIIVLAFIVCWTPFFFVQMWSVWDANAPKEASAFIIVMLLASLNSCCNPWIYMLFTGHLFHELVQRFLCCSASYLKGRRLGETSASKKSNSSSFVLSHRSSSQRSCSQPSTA
Briefly: (§1) Agonist activity at human oxytocin receptor expressed in HEK293 cells coexpressing Rluc8-tagged Galphaq, N-terminal GFP-tagged Ggamma2 and Gbeta1 protein incubated for 2 mins by Gq protein activation based BRET assay. On the set-up: unit not given here. It is filed as cell-based. (Bioluminescence resonance energy transfer reports proximity on the nanometre scale.)

Assay [2] has as its target T2, Oxytocin receptor (Homo sapiens, UniProt P30559).
T2 sequence (P30559 whole entry): T1 sequence (whole entry)
The description is as §1. The format is cell-based.

Assay [3] relates to T3, Oxytocin receptor (Homo sapiens), P30559 [C47A].
T3 sequence (whole entry): T1 sequence (whole entry) with C47A
Briefly: (§2) Agonist activity at human oxytocin receptor C47A mutant expressed in HEK293 cells coexpressing Rluc8-tagged Galphaq, N-terminal GFP-tagged Ggamma2 and Gbeta1 protein incubated for 2 mins by Gq protein activation based BRET assay. The format is cell-based. On the set-up: unit not given here.

The target in assay [4] is T4, Oxytocin receptor (Homo sapiens, UniProt P30559, C47A). The assay is described as follows: Agonist activity at human oxytocin receptor C47A mutant high affinity site expressed in HEK293 cells coexpressing Rluc8-tagged Galphaq, N-terminal GFP-tagged Ggamma2 and Gbeta1 protein incubated for 2 mins by Gq protein activation based BRET assay. It is filed as cell-based.
The target in assay [5] is T4, Oxytocin receptor. Briefly: Agonist activity at human oxytocin receptor C47A mutant low affinity site expressed in HEK293 cells coexpressing Rluc8-tagged Galphaq, N-terminal GFP-tagged Ggamma2 and Gbeta1 protein incubated for 2 mins by Gq protein activation based BRET assay. The format is cell-based.
In assay [6] the test system is T5, Oxytocin receptor (Homo sapiens), P30559 [V43A,C47A].
T5 sequence (whole entry): T1 sequence (whole entry) with V43A, C47A
The assay is described as follows: (§3) Agonist activity at human oxytocin receptor V43A/C47A double mutant expressed in HEK293 cells coexpressing Rluc8-tagged Galphaq, N-terminal GFP-tagged Ggamma2 and Gbeta1 protein incubated for 2 mins by Gq protein activation based BRET assay. On the set-up: unit not given here. It is filed as cell-based.

Assay [7] has as its target T6, Oxytocin receptor (Homo sapiens, UniProt P30559, C47A/V43A). Briefly: Agonist activity at human oxytocin receptor V43A/C47A double mutant high affinity site expressed in HEK293 cells coexpressing Rluc8-tagged Galphaq, N-terminal GFP-tagged Ggamma2 and Gbeta1 protein incubated for 2 mins by Gq protein activation based BRET assay. The format is cell-based.
In assay [8] the target is T6, Oxytocin receptor. Briefly: Agonist activity at human oxytocin receptor V43A/C47A double mutant low affinity site expressed in HEK293 cells coexpressing Rluc8-tagged Galphaq, N-terminal GFP-tagged Ggamma2 and Gbeta1 protein incubated for 2 mins by Gq protein activation based BRET assay. The format is cell-based.
The target in assay [9] is T1, Oxytocin receptor (Homo sapiens). Briefly: (§4) Agonist activity at human oxytocin receptor expressed in HEK293 cells coexpressing Rluc8-tagged Galphaq, N-terminal GFP-tagged Ggamma2 and Gbeta1 protein incubated for 2 mins in presence of TMH1-TAT peptide by Gq protein activation based BRET assay. It is filed as cell-based. Details: unit not given here.
Assay [10] addresses T2, Oxytocin receptor. The description is as §4. It is filed as cell-based.
Assay [11] addresses T1, Oxytocin receptor (Homo sapiens). The assay is described as follows: (§5) Agonist activity at human oxytocin receptor expressed in HEK293 cells coexpressing Rluc8-tagged Galphaq, N-terminal GFP-tagged Ggamma2 and Gbeta1 protein incubated for 2 mins in presence of TMH5-TAT peptide by Gq protein activation based BRET assay. It is filed as cell-based. Details: unit not given here.

For assay [12], the target named is T2, Oxytocin receptor. Described as §5. It is filed as cell-based.
Assay [13] concerns the target T2, Oxytocin receptor. The assay is described as follows: Agonist activity at human oxytocin receptor high affinity site expressed in HEK293 cells coexpressing Rluc8-tagged Galphaq, N-terminal GFP-tagged Ggamma2 and Gbeta1 protein incubated for 2 mins by Gq protein activation based BRET assay. It is filed as cell-based.
Assay [14] has as its target T2, Oxytocin receptor. Briefly: Agonist activity at human oxytocin receptor low affinity site expressed in HEK293 cells coexpressing Rluc8-tagged Galphaq, N-terminal GFP-tagged Ggamma2 and Gbeta1 protein incubated for 2 mins by Gq protein activation based BRET assay. The format is cell-based.
In assay [15] the target is T1, Oxytocin receptor (Homo sapiens). Briefly: Displacement of [125I]-OVTA from human oxytocin receptor expressed in COS7 cell membrane. The format is cell membranes.
The target in assay [16] is T4, Oxytocin receptor. The assay is described as §2. It is filed as cell-based.
Assay [17] concerns the target T1, Oxytocin receptor (Homo sapiens). Briefly: Ratio of EC50 for human oxytocin receptor high affinity site expressed in HEK293 cells coexpressing Rluc8-tagged Galphaq, N-terminal GFP-tagged Ggamma2 and Gbeta1 protein to Ki for human oxytocin receptor high affinity site expressed in COS7 cell membrane. It is filed as cell-based.
Assay [18] has the same target. Briefly: Ratio of EC50 for human oxytocin receptor low affinity site expressed in HEK293 cells coexpressing Rluc8-tagged Galphaq, N-terminal GFP-tagged Ggamma2 and Gbeta1 protein to Ki for human oxytocin receptor low affinity site expressed in COS7 cell membrane. It is filed as cell-based.
The target in assay [19] is T6, Oxytocin receptor. The description is as §3. The format is cell-based.
Assay [20] relates to Mus musculus. Briefly: Effect on social behavior in OXTR+/- DBA/2J mouse assessed as increase in time spent exploring stranger mouse over time spent exploring empty cage at 0.005 ng/mouse, icv measured for 10 mins by three chamber method. The format is functional, organism-based.
For assay [21], the species on record is Mus musculus. The assay is described as follows: Potency index, ratio of oxytocin dose to compound dose for OXTR+/- DBA/2J mouse assessed as increase in time spent exploring stranger mouse over time spent exploring empty cage. It is filed as functional.
In assay [22] the test system is Danio rerio. Briefly: Effect on social behavior in zebra fish assessed as increase in time spent swimming parallel to nacre mutant fish over time spent shoaling close to wild type fish at 0.2 ng/kg, im. The format is functional, organism-based.
For assay [23], the species on record is Danio rerio. The assay is described as follows: Potency index, ratio of isotocin dose to compound dose for effect on shoaling behavior in zebra fish. It is filed as functional.
Assay [24] has as its target T2, Oxytocin receptor. Briefly: Agonist activity at human oxytocin receptor high affinity site expressed in HEK293 cells coexpressing Rluc8-tagged Galphaq, N-terminal GFP-tagged Ggamma2 and Gbeta1 protein incubated for 2 mins in presence of TMH5-TAT peptide by Gq protein activation based BRET assay. The format is cell-based.
The target in assay [25] is T2, Oxytocin receptor. The assay is described as follows: Agonist activity at human oxytocin receptor low affinity site expressed in HEK293 cells coexpressing Rluc8-tagged Galphaq, N-terminal GFP-tagged Ggamma2 and Gbeta1 protein incubated for 2 mins in presence of TMH5-TAT peptide by Gq protein activation based BRET assay. The format is cell-based.

The structures appear in SMILES notation. Residue numbers refer to the chain shown, from its start. Calls of active or inactive are those of the source. The rule behind the calls is not given here. Numbered stars: 1 amine (or outer) side, 2 acyl side, 3 side chain; on linkers, the order of the positions; unused ones are H or OH. Bridge positions count the residues as written; N and C are the ends. Square brackets hold non-standard residues; d marks the D form. Peptide text beside a SMILES is read from it. I, II: the chains in the order shown. * marks the point of attachment. C14 diacid = O=C(O)CCCCCCCCCCCCC(=O)*; Suberoyl = O=C(CCCCCCC(=O)[*:2])[*:1]; Mpa = O=C(O)CCS

What is called EC50 is the concentration needed to bring the measured effect to its halfway point.

T6 sequence (P30559 whole entry V43A/C47A): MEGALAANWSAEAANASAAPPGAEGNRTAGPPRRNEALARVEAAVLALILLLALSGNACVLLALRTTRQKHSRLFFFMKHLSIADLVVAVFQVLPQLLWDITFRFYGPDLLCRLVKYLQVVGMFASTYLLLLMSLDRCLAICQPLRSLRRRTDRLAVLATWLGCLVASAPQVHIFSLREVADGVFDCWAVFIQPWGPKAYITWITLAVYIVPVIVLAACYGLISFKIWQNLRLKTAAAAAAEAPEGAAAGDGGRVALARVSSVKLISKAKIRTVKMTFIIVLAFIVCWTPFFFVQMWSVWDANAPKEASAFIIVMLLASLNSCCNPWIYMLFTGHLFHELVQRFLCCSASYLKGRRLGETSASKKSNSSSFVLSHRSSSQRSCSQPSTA
T4 sequence (P30559 whole entry C47A): as the sequence (P30559 whole entry V43A/C47A) above, with A43V counted along it

For the compound `CC[C@H](C)[C@@H]1NC(=O)[C@H](Cc2ccc(O)cc2)NC(=O)CCSSC[C@@H](C(=O)N2CCC[C@H]2C(=O)N[C@@H](CCCCNC(=O)CCCCCCCCCCCCC(=O)NCCCC[C@H](NC(=O)[C@@H]2CCCN2C(=O)[C@@H]2CSSCCC(=O)N[C@@H](Cc3ccc(O)cc3)C(=O)N[C@@H]([C@@H](C)CC)C(=O)N[C@@H](CCC(N)=O)C(=O)N[C@@H](CC(N)=O)C(=O)N2)C(=O)NCC(N)=O)C(=O)NCC(N)=O)NC(=O)[C@H](CC(N)=O)NC(=O)[C@H](CCC(N)=O)NC1=O` (I: [Mpa]YIQNCPKG-NH2 / II: [Mpa]YIQNCPKG-NH2; disulfide I:1-I:6, II:1-II:6; linker I:8-II:8 via C14 diacid), the Emax is -0.1 in assay [1]; -0.11 in assay [3]; -0.11 in assay [6]; -0.144 in assay [9]; -0.145 in assay [11]. Also, the EC50 on Oxytocin receptor [2] is 29.4 nM; on Oxytocin receptor [4], 0.0014 nM; on Oxytocin receptor [5], 301 nM; on Oxytocin receptor [7], 0.011 nM; on Oxytocin receptor [8] it was 867 nM; on Oxytocin receptor [10], 15.4 nM. The EC50 on Oxytocin receptor [12] amounted to 59 nM.
On to `CC[C@H](C)[C@@H]1NC(=O)[C@H](Cc2ccc(O)cc2)NC(=O)CCSSC[C@@H](C(=O)N2CCC[C@H]2C(=O)N[C@@H](CCCCNC(=O)CCCCCCC(=O)NCCCC[C@H](NC(=O)[C@@H]2CCCN2C(=O)[C@@H]2CSSCCC(=O)N[C@@H](Cc3ccc(O)cc3)C(=O)N[C@@H]([C@@H](C)CC)C(=O)N[C@@H](CCC(N)=O)C(=O)N[C@@H](CC(N)=O)C(=O)N2)C(=O)NCC(N)=O)C(=O)NCC(N)=O)NC(=O)[C@H](CC(N)=O)NC(=O)[C@H](CCC(N)=O)NC1=O` (I: [Mpa]YIQNCPKG-NH2 / II: [Mpa]YIQNCPKG-NH2; disulfide I:1-I:6, II:1-II:6; linker I:8-II:8 via Suberoyl), for which the Emax in assay [1] was -0.11; in assay [3] it was -0.14; in [6] it was -0.1; in [9], -0.16; in assay [11] it was -0.15. The half-maximal effective concentration (EC50) at Oxytocin receptor [13] turned out to be 0.0008 nM; on Oxytocin receptor [14], 67.3 nM; at Oxytocin receptor [16], 40.5 nM; at Oxytocin receptor [19], 117 nM; at Oxytocin receptor [10], 19.3 nM; at Oxytocin receptor [24], 0.0118 nM. Also, the EC50 at Oxytocin receptor [25] turned out to be 33.4 nM. Moreover, in assay [15], the KiH amounted to 0.08 pM. In assay [15], this compound came in with a KiL of 1.24 nM. In addition, the Ratio in assay [17] is 10; in assay [18], 10; in the assay listed under Mus musculus [21], 100; in the assay listed under Danio rerio [23], 40. Also, the outcome in the assay on Mus musculus [20] and in the assay with Danio rerio [22] was Active.

The record behind these values is ChEMBL document CHEMBL4477229, “Design and Characterization of Superpotent Bivalent Ligands Targeting Oxytocin Receptor Dimers via a Channel-Like Structure” (J Med Chem, 2016).
